Test results: US5985900A, “Metalloproteinase inhibitors, pharmaceutical compositions containing them and their pharmaceutical uses” (Agouron Pharmaceuticals, Inc., priority 1998, dated 1999)
pKi: −log10 of the molar value.

What was measured:
Assay type in all cases: biochemical
human stromelysin (Sln) = human stromelysin (Sln) (Homo sapiens, UniProt P08254); test: In vitro MMP inhibition assay (hydrolysis of fluorogenic MCA peptide substrate), stromelysin; conditions: Table 1; Ki,app; MCA peptide substrate 10 μM, 37° C., pH 7.5, 2% DMSO; read-out: Sin Ki
Protocol: The catalytic domain of human stromelysin (Sln) was obtained by expression and purification of a C-terminally truncated prostromelysin-1 from E. coli host BL21 (see Marcy et al. Biochem., 1991, 30, 6476). The subsequent activation of the mature form (Sln) was completed with 2 mM APMA for 1 hour at 37° C., followed by separation using a sizing column.
(§1) Assays were performed in assay buffer (50 mM Tricine pH 7.5, 200 mM sodium chloride, 10 mM calcium chloride, 0.5 mM zinc acetate containing 2% dimethyl sulfoxide (DMSO)) once the substrate and inhibitor were diluted into it. Stock solutions of inhibitors were prepared in 100% DMSO. Stock solutions of the substrate were prepared in 100% DMSO at a concentration of 6 mM.
(§2) The assay method was based on the hydrolysis of MCA-Pro-Leu-Gly-Leu-DPA-Ala-Arg-NH2 (American Peptide Co.) at 37° C. (see Knight, C. G. et al., FEBS, 1992, 296, 263-266). The fluorescence changes were monitored with a Perkin-Elmer LS-50B fluorimeter using an excitation wavelength of 328 nm and an emission wavelength of 393 nm. The substrate concentration used in the assays was 10 μM. The inhibitor was diluted into the assays from a solution in 100% DMSO, and controls substituted an equal volume of DMSO so that the final DMSO concentration from inhibitor and substrate dilution in all assays was 2%. […] Proper determination of steady-state rates of substrate cleavage required assay lengths of 60 minutes to allow for complete equilibration of the enzyme-inhibitor complex.
(§3) The Km for the MCA peptide substrate with the matrix metalloproteinases is quite high and exceeds its solubility under assay conditions. Consequently, the apparent Ki (Ki,app) was determined to describe the strength of inhibition. However, in this case, Ki,app would be essentially equal to Ki since [S]<<Km. For the determination of Ki,app, the concentration of the inhibitor was varied at a constant and low concentration of substrate and the steady-state rates of fluorescence change determined. In most cases absorptive quench due to the presence of ligand was not observed. For slow-binding inhibitors, onset of inhibition curves were collected for at least 45 minutes so that equilibrium was established. Steady-state rates of fluorescence change were obtained by fitting a curve to an equation for a single exponential decay containing a linear phase. The fitted value of the linear phase was taken as the steady-state rate. The steady-state rates were fitted to the Michaelis equation describing competitive inhibition by non-linear methods. Data resulting from tight-binding inhibition was analyzed, and Ki,app determined by fitting the data to the tight-binding equation of Morrison (Biochem. Biophys. Acta, vol. 185, pp. 269-286 (1969)) by non-linear methods.
(§4) All Ki values are in nM units.

[1] = biological target: human progelatinase A (GelA) (Homo sapiens, UniProt P08253); test: In vitro MMP inhibition assay (hydrolysis of fluorogenic MCA peptide substrate), gelatinase A; conditions: Table 1; Ki,app; MCA peptide substrate 10 μM, 37° C., pH 7.5, 2% DMSO; read-out: Gel A
Protocol: The catalytic and fibronectin-like portion of human progelatinase A (GelA) was expressed as a fusion protein with ubiquitin in E. Coli. Assays were carried out on autocatalytically activated material.
as §1, §2, §3, §4

[2] = biological target: T1, human collagenase-1 (HFC) (Homo sapiens, UniProt P03956); test: In vitro MMP inhibition assay (hydrolysis of fluorogenic MCA peptide substrate), fibroblast collagenase-1; conditions: Table 1; Ki,app; MCA peptide substrate 10 μM, 37° C., pH 7.5, 2% DMSO
T1 sequence (P03956 100-269 limits assumed): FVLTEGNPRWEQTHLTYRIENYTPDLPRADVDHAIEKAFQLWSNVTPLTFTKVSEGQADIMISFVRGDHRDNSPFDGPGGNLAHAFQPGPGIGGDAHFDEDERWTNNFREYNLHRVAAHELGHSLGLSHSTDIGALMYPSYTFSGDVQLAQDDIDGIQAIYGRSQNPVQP
Protocol: The catalytic domain of human collagenase-1 was expressed as a fusion protein with ubiquitin in E. coli (see Gehring, E. R., J Biol. Chem., 1995, 270, 22507). After purification of the fusion protein, the fibroblast collagenase-1 catalytic domain (HFC) was released either by treatment with purified, active stromelysin-1 (1:50 wlw ratio), which generated nearly 100% N-terminal Phe1, or by autoprocessing the concentrated collagenase-1 fusion and then incubating at 37° C. for 1 hour. Final purification was completed using zinc chelate chromatography.
as §1, §2, §3, §4

Human matrilysin (Matr) = biological target: T2, Human matrilysin (Matr) (Homo sapiens, UniProt P09237); test: In vitro MMP inhibition assay (hydrolysis of fluorogenic MCA peptide substrate), matrilysin; conditions: Table 1; Ki,app; MCA peptide substrate 10 μM, 37° C., pH 7.5, 2% DMSO; read-out: Matri Ki
T2 construct: catalytic domain liberated with APMA
T2 sequence (P09237 95-267): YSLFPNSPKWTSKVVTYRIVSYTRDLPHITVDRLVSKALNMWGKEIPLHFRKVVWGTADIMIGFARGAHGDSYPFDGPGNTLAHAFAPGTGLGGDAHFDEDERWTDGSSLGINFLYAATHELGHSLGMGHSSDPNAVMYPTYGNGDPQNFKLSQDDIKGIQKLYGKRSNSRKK
Protocol: Human matrilysin (Matr) was expressed in E. coli as a fusion protein with ubiquitin. After purification of the matrilysin/ubiquitin fusion from inclusion bodies, the catalytic domain was liberated by treatment with 2 mM APMA at 37° C. for 2 hours. Final purification was complete using copper chelate chromatography.
as §1, §2, §3, §4

[3] = biological target: T3, human collagenase-3 (Coll3) (Homo sapiens, UniProt P45452); test: In vitro MMP inhibition assay (hydrolysis of fluorogenic MCA peptide substrate), collagenase-3; conditions: Table 1; Ki,app; MCA peptide substrate 10 μM, 37° C., pH 7.5, 2% DMSO
T3 construct: catalytic domain liberated with APMA
Protocol: The propeptide and catalytic domain of human collagenase-3 (Coll3) was expressed in E. coli as an N-terminal fusion protein with ubiquitin. After purification of the fusion from inclusion bodies, the catalytic domain was liberated by treatment with 2 mM APMA at room temperature overnight. Final purification was completed using copper chelate chromatography.
as §1, §2, §3, §4

human progelatinase A (GelA), sequence (P08253 110-446 limits assumed): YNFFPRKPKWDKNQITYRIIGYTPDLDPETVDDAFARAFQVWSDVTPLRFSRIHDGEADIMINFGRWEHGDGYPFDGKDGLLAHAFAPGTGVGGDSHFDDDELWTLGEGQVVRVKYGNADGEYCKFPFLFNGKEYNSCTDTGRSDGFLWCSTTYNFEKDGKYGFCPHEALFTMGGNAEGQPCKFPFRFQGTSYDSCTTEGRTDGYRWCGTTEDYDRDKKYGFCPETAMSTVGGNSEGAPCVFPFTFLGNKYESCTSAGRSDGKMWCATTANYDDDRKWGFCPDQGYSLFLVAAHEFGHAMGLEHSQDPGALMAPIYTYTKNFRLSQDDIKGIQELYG
human stromelysin (Sln), sequence (P08254 100-272 limits assumed): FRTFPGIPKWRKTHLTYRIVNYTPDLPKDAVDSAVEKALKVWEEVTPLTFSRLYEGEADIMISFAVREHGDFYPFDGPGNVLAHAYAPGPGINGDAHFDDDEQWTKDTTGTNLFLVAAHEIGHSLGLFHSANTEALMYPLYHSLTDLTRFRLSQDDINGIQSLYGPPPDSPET

Structure (SMILES)	pKi (human stromelysin (Sln))	pKi [1]	pKi [2]	pKi (Human matrilysin (Matr))	pKi [3]
CC(C)(C)[C@H](NS(=O)(=O)c1ccc(Oc2ccccc2)cc1)C(=O)NO [Example 9k, 2(S)--N-hydroxy-3,3-dimethyl-2-[(4-phenoxybenzenesulfonyl)-amino]butanamide]	8.38	10.04	7.28	6.42	10.24
CC(C)(SCc1ccccn1)[C@@H](NS(=O)(=O)c1ccc(Oc2ccc(F)cc2)cc1)C(=O)NO [Example 9h, 2(S)--N-hydroxy-3-methyl-3-(pyrid-2-yl)methylsulfanyl-2-[(4-(4-fluorophenoxy)benzenesulfonyl)amino]butanamide]	9.08	10.51	7.77		10.24
CC(C)(SCc1ccccn1)[C@@H](NS(=O)(=O)c1ccc(Oc2ccc(Br)cc2)cc1)C(=O)NO [Example 9e, 2(S)--N-hydroxy-3-methyl-3-(pyrid-2-yl)methylsulfanyl-2-[(4-(4-bromophenoxy)benzenesulfonyl)amino]butanamide]	9.59		8.39	8.10	
CC(C)([C@@H](NS(=O)(=O)c1ccc(Oc2ccc(Br)cc2)cc1)C(=O)NO)[S+]([O-])Cc1ccccn1 (mixture of isomers) [Example 11, 2(S), S(R/S)--N-hydroxy-3-methyl-3-(pyrid-2-yl) methylsulfinyl-2-[(4-(4-bromophenoxy)benzenesulfonyl)amino]butanamide]	9.00	10.31	7.62		10.55
CC(C)(C)OC(=O)CSC(C)(C)[C@@H](NS(=O)(=O)c1ccc(Oc2ccc(F)cc2)cc1)C(=O)O [Example 3n, S--(t-Butoxycarbonyl)methyl--N--[4-(4-fluorophenoxy)benzenesulfonyl]-D-penicillamine]	5.24	6.74			6.24
CC(C)(C)[C@@H](NS(=O)(=O)c1ccc(Oc2ccc(Cl)cc2)cc1)C(=O)O [Example 3p, N-[4-(4-Chlorophenoxy)benzenesulfonyl]-D-tert-leucine]	5.02	7.21			6.69
CC(C)(C)[C@@H](NS(=O)(=O)c1ccc(Oc2ccccc2)cc1)C(=O)O [Example 3r, N-[4-Phenoxybenzenesulfonyl]-D-tert-leucine]	4.89	6.98			6.21
CC(C)(SCc1ccccn1)[C@@H](NS(=O)(=O)c1ccc(Oc2ccc(-c3ccoc3)cc2)cc1)C(=O)O [Example 4e, N-[4-(4-(Furan-3-yl)phenoxy)benzenesulfonyl]--S--[(pyrid-2-yl)methyl]-D-penicillamine]	6.17	8.15			6.82
CSC(C)(C)[C@@H](NS(=O)(=O)c1ccc(Oc2ccccc2)cc1)C(=O)O [Example 6a, S-Methyl--N--[4-(phenoxy)benzenesulfonyl]-D-penicillamine]	5.31	6.45			6.18
Cc1ccc(Oc2ccc(S(=O)(=O)N[C@@H](C(=O)O)C(C)(C)SCc3ccccn3)cc2)cc1 [Example 3g, N-[4-(4-Methylphenoxy)benzenesulfonyl]--S--[(pyrid-2-yl)methyl]-D-penicillamine]	5.88	8.00			6.93
CC(C)(C)OC(=O)CSC(C)(C)[C@@H](NS(=O)(=O)c1ccc(Oc2ccc(F)cc2)cc1)C(=O)NO [Example 9j, 2(S)--N-hydroxy-3-methyl-3-(t-butoxycarbonyl)methylsulfanyl-2-[(4-(4-fluorophenoxy)benzenesulfonyl)amino]butanamide]	8.80	10.32	7.48		10.04
Cc1cc(CSC(C)(C)[C@@H](NS(=O)(=O)c2ccc(Sc3ccncc3)cc2)C(=O)O)no1 [Example 4c, S--[(5-Methylisoxazol-3-yl)methyl]--N--[4(pyrid-4-yl)sulfanylbenzenesulfonyl]-D-penicillamine]	4.01	6.05			5.15
CSC(C)(C)[C@@H](NS(=O)(=O)c1ccc(Oc2ccc(Cl)cc2)cc1)C(=O)O [Example 6b, S-Methyl--N--[4-(4-chlorophenoxy)benzenesulfonyl]-D-penicillamine]	4.77	6.67			6.16
CC(C)(SCc1ccncc1)[C@@H](NS(=O)(=O)c1ccc(Oc2ccc(F)cc2)cc1)C(=O)O [Example 3f, N-[4-(4-Fluorophenoxy)benzenesulfonyl]--S--[(pyrid-4-yl)methyl]-D-penicillamine]	5.20	6.51			6.08
CC(C)(SCc1cccnc1)[C@@H](NS(=O)(=O)c1ccc(Oc2ccc(F)cc2)cc1)C(=O)O [Example 3e, N-[4-(4-Fluorophenoxy)benzenesulfonyl]--S--[(pyrid-3-yl)methyl]-D-penicillamine]	5.16	6.29			5.96
CC(C)(SCC(=O)O)[C@@H](NS(=O)(=O)c1ccc(Oc2ccc(F)cc2)cc1)C(=O)O [Example 5, S-Carboxymethyl--N--[4-(4-fluorophenoxy)benzenesulfonyl]-D-penicillamine]	4.56	5.81			5.79
CC(C)(SCc1ccccn1)[C@@H](NS(=O)(=O)c1ccc(Oc2ccc(F)cc2)cc1)C(=O)O [Example 3c, N-[4-(4-Fluorophenoxy)benzenesulfonyl]--S--[(pyrid-2-yl)methyl]-D-penicillamine]	5.59	7.36			6.96
CC(C)(SCc1ccccc1)[C@@H](NS(=O)(=O)c1ccc(Oc2ccccc2)cc1)C(=O)O [Example 3m, S-Benzyl--N--[4-phenoxybenzenesulfonyl]-D-penicillamine]	6.00	7.34			6.04
Cc1cc(CSC(C)(C)[C@@H](NS(=O)(=O)c2ccc(Oc3ccc(F)cc3)cc2)C(=O)O)no1 [Example 3l, N-[4-(4-Fluorophenoxy)benzenesulfonyl]--S--[(5-methylisoxazol-3-yl)methyl]-D-penicillamine]	5.29	7.45			6.61
CC(C)(SCc1ccccc1)[C@@H](NS(=O)(=O)c1ccc(Oc2ccncc2)cc1)C(=O)O [Example 4a, S-Benzyl--N--[4-(pyrid-4-yl)oxybenzenesulfonyl]-D-penicillamine]	5.11	6.71			6.44
